ChEMBL document CHEMBL4219050, “Inhibit or Evade Multidrug Resistance P-Glycoprotein in Cancer Treatment” (J Med Chem, 2018)

Legend:
HCT-116 = test: Cytotoxicity against human HCT116 cells; type: functional, cell-based
Homo sapiens = organism: Homo sapiens; test: (§1) Binding affinity to P-gp (unknown origin)
MES-SA/Dx5 = test: Growth inhibition of human MES-SA/Dx5 cells after 72 hrs by SRB assay; type: functional, cell-based; details: MES-SA/Dx5, 72 h
[1] = Growth inhibition of human MDA435/LCC6 cells after 72 hrs by SRB assay; type: functional; details: MDA-435/LCC6, 72 h
[2] = as §1; design: species or system Homo sapiens

C/C(=C\c1csc(C)n1)[C@@H]1C/C=C\C/C=C\[C@H](C)[C@H](O)[C@@H](C)C(=O)C(C)(C)[C@@H](O)CC(=O)O1
IC50 (HCT-116): 0.41 nM

COc1ccc(CCN(C)CCCC(C#N)(c2ccc(OC)c(OC)c2)C(C)C)cc1OC (stereo not drawn)
Activity (Homo sapiens): 10 µM

CO[C@H]1C(=O)[C@]2(C)[C@@H](OC)C[C@H]3OC[C@@]3(OC(C)=O)[C@H]2[C@H](OC(=O)c2ccccc2)[C@]2(O)C[C@H](OC(=O)[C@H](O)[C@@H](NC(=O)OC(C)(C)C)c3ccccc3)C(C)=C1C2(C)C [CABAZITAXEL]
IC50 (MES-SA/Dx5): 15 nM

C/C(=C\c1csc(C)n1)[C@@H]1C[C@@H]2O[C@]2(C)CCC[C@H](C)[C@H](O)[C@@H](C)C(=O)C(C)(C)[C@@H](O)CC(=O)N1 [IXABEPILONE]
IC50 (HCT-116): 2.6 nM

CC(=O)O[C@H]1C(=O)[C@@]2(C)[C@H]([C@H](OC(=O)c3ccccc3)[C@]3(O)C[C@H](OC(=O)[C@H](O)[C@@H](NC(=O)c4ccccc4)c4ccccc4)C(C)=C1C3(C)C)[C@]1(OC(C)=O)CO[C@@H]1C[C@@H]2O [PACLITAXEL]
IC50 [1]: 346 nM | IC50 (MES-SA/Dx5): 210 nM

COc1cc2c(cc1OC)CN(CCc1ccc(NC(=O)c3cc(OC)c(OC)cc3NC(=O)c3cnc4ccccc4c3)cc1)CC2 [TARIQUIDAR]
EC50 [2]: < 100 nM

O[C@@H](COc1cccc2ncccc12)CN1CCN([C@@H]2c3ccccc3[C@@H]3[C@H](c4ccccc42)C3(F)F)CC1 [ZOSUQUIDAR]
EC50 [2]: < 100 nM
